# Results: PMC8002452, “Molecular Basis of AmpC β-Lactamase Induction by Avibactam in Pseudomonas aeruginosa: PBP Occupancy, Live Cell Binding Dynamics and Impact on Resistant Clinical Isolates Harboring PDC-X Variants” (International Journal of Molecular Sciences, 2021)
# Experiments:
# PBP1a = molecular target: T1, PBP1a (Pseudomonas aeruginosa, UniProt Q07806); assay: PBP-binding affinity (IC50), bocillin FL, isolated membranes; set-up: species or system P. aeruginosa PAO1; settings: PAO1 membranes 0.5 mg/mL, 30 min, 25 µM bocillin FL; read-out: Mean IC50 ± SD, PBP 1a (converted)
# T1 construct: PBP-containing membranes were isolated by ultracentrifugation; endogenous in cells; host or cells: P. aeruginosa PAO1 wild type (membrane preparations or intact cells)
# Protocol: (§1) PBP-binding affinity was determined using previously described methods. Briefly, P. aeruginosa PAO1 cultures grown to the midexponential phase (7.6 log10 CFU/mL) were incubated in CAMHB at 37 °C and 180 rpm, washed and centrifuged (3220× g for 10 min at 4 °C). Bacterial pellets were washed in 30 mL of PBS buffer (pH 7.5), resuspended in 10 mL of PBS and sonicated at 40% amplitude for three 2 min bursts (while immersed in an ice bath) and centrifuged at 3220× g for 15 min at 4 °C. PBP-containing membranes were isolated by ultracentrifugation at 150,000× g for 30 min at 4 °C. Total protein concentrations were measured through the Bradford method.
# (§2) Subsequently, the fluorescent penicillin bocillin FL was added to a 25 μM final concentration. Labeled PBPs were denatured and separated through 4–15% SDS–polyacrylamide gel electrophoresis. Labeled PBPs were visualized using a Typhoon FLA 9500 biomolecular imager (GE Healthcare Bio-Sciences AB, Uppsala, Sweden) (excitation at 488 nm and emission at 530 nm), and binding was determined from at least three independent experiments using ImageQuant TL software v8.1.0.0 (GE Healthcare Bio-Sciences AB, Uppsala, Sweden).
# PBP5/6 = PBP5/6 (Pseudomonas aeruginosa, UniProt G3XD74); assay: as above; set-up: species or system P. aeruginosa PAO1; settings: PAO1 membranes 0.5 mg/mL, 30 min, 25 µM bocillin FL; read-out: Mean IC50 ± SD, PBP 5/6 (converted)
# Protocol: as §1, §2
# PBP2 = molecular target: T2, PBP2 (Pseudomonas aeruginosa, UniProt Q9X6V3); assay: as above; set-up: species or system P. aeruginosa PAO1; settings: PAO1 membranes 0.5 mg/mL, 30 min, 25 µM bocillin FL; read-out: Mean IC50 ± SD, PBP 2 (converted)
# T2 construct: PBP-containing membranes were isolated by ultracentrifugation; endogenous in cells; host or cells: P. aeruginosa PAO1 wild type (membrane preparations or intact cells)
# Protocol: as §1, §2
# PBP1b = PBP1b (Pseudomonas aeruginosa, UniProt G3XD31); assay: as above; set-up: species or system P. aeruginosa PAO1; settings: PAO1 membranes 0.5 mg/mL, 30 min, 25 µM bocillin FL
# Protocol: as §1, §2
# PBP4 = PBP4 (Pseudomonas aeruginosa, UniProt Q9HZG1); assay: as above; set-up: species or system P. aeruginosa PAO1; settings: PAO1 membranes 0.5 mg/mL, 30 min, 25 µM bocillin FL; read-out: Mean IC50 ± SD, PBP 4 (converted)
# Protocol: as §1, §2
# [1] = system: ampC mRNA in 109-E9 (CAZ/AVI-sensitive ST175 clinical isolate); assay: qRT-PCR quantification of AmpC induction; type: cell-based, P. aeruginosa; settings: IPM 8, FOX 64, AVI 16 µg/mL, relative to strain basal t=0
# Protocol: (§3) Samples were taken at 0, 30 and 180 min. Total RNA was extracted with the RNeasy Mini Kit (Qiagen, Hilden, Germany) and treated with TURBO DNase (Thermo Fisher Scientific, Waltham, MA, USA) to remove contaminating DNA. Samples were afterwards normalized to 50 ng/µL.
# (§4) Normalized samples were then used for one-step reverse transcription and real-time PCR amplification using the QuantiTect SYBR green qRT-PCR kit (Qiagen, Hilden, Germany) in a CFX Connect Real-Time PCR System (Bio-Rad, Hercules, California, USA). Previously described primer pairs ACrnaF/ACrnaR and rpsL-1/rpsL-2 were used for the amplification of ampC and housekeeping gene rpsL, respectively. The mean values of relative mRNA expression (2^−ΔΔCt) obtained from at least two independent biological replicates and duplicate technical replicates were considered.
# [2] = system: ampC mRNA in wild-type PAO1; assay: qRT-PCR quantification of AmpC induction; type: cell-based, P. aeruginosa; settings: IPM 8, FOX 64, AVI 16 µg/mL, relative to strain basal t=0
# Protocol: as §3, §4
# [3] = system: ampC mRNA in 101-E5 (CAZ/AVI-sensitive ST175 clinical isolate); assay: qRT-PCR quantification of AmpC induction; type: cell-based, P. aeruginosa; settings: IPM 8, FOX 64, AVI 16 µg/mL, relative to strain basal t=0
# Protocol: as §3, §4
# [4] = system: ampC mRNA in PAΔdacB (PBP4 knockout mutant); assay: qRT-PCR quantification of AmpC induction; type: cell-based, P. aeruginosa; settings: 180 min; IPM 8, FOX 64 µg/mL
# Protocol: as §3, §4
# [5] = system: ampC mRNA in 103-H8 (AmpC E247K; PDC-221, CAZ/AVI-resistant ST175 clinical isolate); assay: qRT-PCR quantification of AmpC induction; type: cell-based, P. aeruginosa; settings: IPM 8, FOX 64, AVI 16 µg/mL, relative to strain basal t=0
# Protocol: as §3, §4
# [6] = system: ampC mRNA in 110-G8 (AmpC DelG229–E247; PDC-223, CAZ/AVI-resistant ST175 clinical isolate); assay: qRT-PCR quantification of AmpC induction; type: cell-based, P. aeruginosa; settings: IPM 8, FOX 64, AVI 16 µg/mL, relative to strain basal t=0
# Protocol: as §3, §4
# PBP3 = molecular target: T3, PBP3 (Pseudomonas aeruginosa, UniProt G3XD46); assay: biochemical; type: binding, P. aeruginosa PAO1; settings: PAO1 membranes 0.5 mg/mL, 30 min, 25 µM bocillin FL; read-out: Mean IC50 ± SD, PBP 3 (converted)
# T3 construct: PBP-containing membranes were isolated by ultracentrifugation; endogenous in cells; host or cells: P. aeruginosa PAO1 wild type (membrane preparations or intact cells)
# Protocol: as §1, §2
# Sequence of PBP1b (G3XD31 entry or part of it): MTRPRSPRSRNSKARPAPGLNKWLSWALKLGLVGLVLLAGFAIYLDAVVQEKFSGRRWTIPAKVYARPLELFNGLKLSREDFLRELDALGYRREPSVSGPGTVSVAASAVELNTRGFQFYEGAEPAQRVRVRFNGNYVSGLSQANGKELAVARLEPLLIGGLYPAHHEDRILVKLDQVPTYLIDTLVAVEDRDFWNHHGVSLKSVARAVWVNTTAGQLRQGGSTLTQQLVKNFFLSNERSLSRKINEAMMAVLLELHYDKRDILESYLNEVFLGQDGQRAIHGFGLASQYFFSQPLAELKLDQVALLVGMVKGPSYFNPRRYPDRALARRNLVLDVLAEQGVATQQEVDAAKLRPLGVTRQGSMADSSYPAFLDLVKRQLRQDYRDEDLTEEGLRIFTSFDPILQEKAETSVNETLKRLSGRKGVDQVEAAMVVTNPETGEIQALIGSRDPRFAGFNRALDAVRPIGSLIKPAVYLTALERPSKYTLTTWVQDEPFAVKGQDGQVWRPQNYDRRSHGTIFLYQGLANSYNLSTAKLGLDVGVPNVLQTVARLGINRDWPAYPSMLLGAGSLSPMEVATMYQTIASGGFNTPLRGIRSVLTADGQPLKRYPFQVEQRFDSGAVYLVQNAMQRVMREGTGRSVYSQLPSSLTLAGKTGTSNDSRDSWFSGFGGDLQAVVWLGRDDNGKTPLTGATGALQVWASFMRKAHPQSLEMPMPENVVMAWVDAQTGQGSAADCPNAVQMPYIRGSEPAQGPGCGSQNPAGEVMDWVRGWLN
# T1 sequence (Q07806 whole entry): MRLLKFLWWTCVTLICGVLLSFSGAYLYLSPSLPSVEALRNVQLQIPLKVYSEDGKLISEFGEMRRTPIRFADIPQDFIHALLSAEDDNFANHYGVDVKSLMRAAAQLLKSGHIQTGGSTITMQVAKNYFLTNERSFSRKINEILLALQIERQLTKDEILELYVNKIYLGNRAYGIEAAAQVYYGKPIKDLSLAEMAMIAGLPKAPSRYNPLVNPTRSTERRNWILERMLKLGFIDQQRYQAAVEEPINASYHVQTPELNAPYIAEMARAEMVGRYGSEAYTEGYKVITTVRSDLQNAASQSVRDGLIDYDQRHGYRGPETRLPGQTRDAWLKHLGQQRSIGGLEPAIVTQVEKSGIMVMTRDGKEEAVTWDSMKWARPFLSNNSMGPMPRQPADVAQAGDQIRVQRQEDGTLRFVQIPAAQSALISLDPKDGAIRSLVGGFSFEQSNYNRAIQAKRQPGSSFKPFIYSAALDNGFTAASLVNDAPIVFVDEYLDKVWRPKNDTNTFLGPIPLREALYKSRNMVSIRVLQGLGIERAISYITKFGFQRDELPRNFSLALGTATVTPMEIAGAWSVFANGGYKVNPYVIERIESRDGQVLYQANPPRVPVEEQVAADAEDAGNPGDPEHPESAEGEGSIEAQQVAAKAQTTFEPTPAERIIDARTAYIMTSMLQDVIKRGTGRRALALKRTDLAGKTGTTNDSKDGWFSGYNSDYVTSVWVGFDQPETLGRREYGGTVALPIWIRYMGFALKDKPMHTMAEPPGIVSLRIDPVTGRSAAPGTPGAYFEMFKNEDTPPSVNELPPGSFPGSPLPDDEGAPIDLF
# Sequence of PBP5/6 (G3XD74 entry or part of it): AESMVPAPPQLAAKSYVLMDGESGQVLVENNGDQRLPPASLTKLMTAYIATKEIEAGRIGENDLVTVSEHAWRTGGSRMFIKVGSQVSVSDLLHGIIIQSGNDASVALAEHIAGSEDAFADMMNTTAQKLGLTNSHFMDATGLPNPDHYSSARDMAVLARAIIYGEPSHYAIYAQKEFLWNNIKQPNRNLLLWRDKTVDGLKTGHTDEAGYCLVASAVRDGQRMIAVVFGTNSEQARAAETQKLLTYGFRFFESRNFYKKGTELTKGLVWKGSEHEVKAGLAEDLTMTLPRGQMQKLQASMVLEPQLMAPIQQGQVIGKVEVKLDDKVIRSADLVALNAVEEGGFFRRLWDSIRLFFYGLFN
# T2 sequence (Q9X6V3 entry or part of it): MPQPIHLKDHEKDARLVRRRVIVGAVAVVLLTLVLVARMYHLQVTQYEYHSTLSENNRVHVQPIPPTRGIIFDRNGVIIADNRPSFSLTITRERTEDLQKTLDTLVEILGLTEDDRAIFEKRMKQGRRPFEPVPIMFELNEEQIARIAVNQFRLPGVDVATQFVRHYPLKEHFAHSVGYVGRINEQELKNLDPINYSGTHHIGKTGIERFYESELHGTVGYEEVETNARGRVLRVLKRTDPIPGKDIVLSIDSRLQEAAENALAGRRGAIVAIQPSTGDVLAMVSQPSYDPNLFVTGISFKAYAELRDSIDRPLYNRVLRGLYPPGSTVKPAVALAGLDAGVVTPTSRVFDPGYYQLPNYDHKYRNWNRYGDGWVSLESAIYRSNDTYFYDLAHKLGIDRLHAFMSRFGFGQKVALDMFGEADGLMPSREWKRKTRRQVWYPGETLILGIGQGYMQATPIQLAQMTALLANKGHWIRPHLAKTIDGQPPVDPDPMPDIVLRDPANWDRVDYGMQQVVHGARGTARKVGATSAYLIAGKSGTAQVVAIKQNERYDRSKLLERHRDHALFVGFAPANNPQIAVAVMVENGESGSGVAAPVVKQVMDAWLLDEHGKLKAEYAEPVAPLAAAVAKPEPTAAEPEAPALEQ
# T3 sequence (G3XD46 whole entry): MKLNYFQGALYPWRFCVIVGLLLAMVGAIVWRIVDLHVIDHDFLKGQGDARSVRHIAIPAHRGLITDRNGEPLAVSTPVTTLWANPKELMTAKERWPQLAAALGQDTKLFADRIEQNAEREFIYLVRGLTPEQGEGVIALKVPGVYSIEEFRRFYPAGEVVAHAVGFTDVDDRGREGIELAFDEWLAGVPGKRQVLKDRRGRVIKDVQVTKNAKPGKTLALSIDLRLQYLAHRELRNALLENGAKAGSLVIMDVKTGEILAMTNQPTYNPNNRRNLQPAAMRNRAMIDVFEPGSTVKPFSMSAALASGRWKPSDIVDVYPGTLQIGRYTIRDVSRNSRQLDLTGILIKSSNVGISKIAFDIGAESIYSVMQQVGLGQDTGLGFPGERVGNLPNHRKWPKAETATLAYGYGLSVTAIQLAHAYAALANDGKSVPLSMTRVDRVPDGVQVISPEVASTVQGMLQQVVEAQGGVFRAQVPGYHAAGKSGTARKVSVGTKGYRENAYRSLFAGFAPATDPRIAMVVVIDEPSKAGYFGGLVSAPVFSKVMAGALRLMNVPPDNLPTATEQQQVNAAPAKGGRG
# Sequence of PBP4 (Q9HZG1 entry or part of it): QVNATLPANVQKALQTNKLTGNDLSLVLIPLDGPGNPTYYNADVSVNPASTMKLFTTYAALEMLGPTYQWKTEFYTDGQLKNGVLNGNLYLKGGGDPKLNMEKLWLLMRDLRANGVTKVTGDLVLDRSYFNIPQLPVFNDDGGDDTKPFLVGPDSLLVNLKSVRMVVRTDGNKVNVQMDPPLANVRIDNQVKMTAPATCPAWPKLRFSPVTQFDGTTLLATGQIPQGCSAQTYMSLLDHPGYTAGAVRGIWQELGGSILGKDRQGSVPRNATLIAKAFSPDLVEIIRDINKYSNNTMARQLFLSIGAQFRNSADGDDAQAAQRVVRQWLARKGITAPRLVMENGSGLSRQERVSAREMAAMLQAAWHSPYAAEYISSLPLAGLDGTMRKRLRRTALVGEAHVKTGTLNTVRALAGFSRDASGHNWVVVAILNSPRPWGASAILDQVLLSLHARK
smiles,measurement,setting,value
C[C@@H](O)[C@H]1C(=O)N2C(C(=O)O)=C(SCCN=CN)C[C@H]12 [Imipenem],IC50,PBP1a,< 0.835 µM
same,IC50,PBP5/6,1.67 µM
same,IC50,PBP2,< 0.835 µM
CO[C@@]1(NC(=O)Cc2cccs2)C(=O)N2C(C(=O)O)=C(COC(N)=O)CS[C@@H]21 [Cefoxitin],"Mean IC50 ± SD, PBP 1b",PBP1b,no PBP1b binding was detected
same,IC50,"PBP1b; read-out: Mean IC50 ± SD, PBP 1b (converted)",> 74.9 µM
same,IC50,PBP1a,18.2 µM
same,IC50,PBP5/6,21.1 µM
same,IC50,PBP2,34.2 µM
same,IC50,PBP4,3.51 µM
same,Relative ampC expression,"[1]; 109-E9, 0 min",0.9
same,Relative ampC expression,"[1]; 109-E9, 30 min",4.1
same,Relative ampC expression,"[1]; 109-E9, 180 min",8.8 ± 7.9
same,Relative ampC expression,"[1]; 109-E9, 180 min, listed as FOX",8.8
same,Relative ampC expression,"[2]; PAO1, 0 min",0.9
same,Relative ampC expression,"[2]; PAO1, 30 min",3100
same,Relative ampC expression,"[2]; PAO1, 180 min",2500
same,Relative ampC expression,"[3]; 101-E5, 0 min",3.7
same,Relative ampC expression,"[3]; 101-E5, 30 min",1.7
same,Relative ampC expression,"[3]; 101-E5, 180 min",5.7 ± 2.8
same,Relative ampC expression,"[3]; 101-E5, 180 min, listed as FOX",5.7
same,"ampC inducibility of PBP4 (dacB) mutant, fold lower than parental strain PAO1",[4],32 fold
same,Relative ampC expression,"[5]; 103-H8, 0 min",1.4
same,Relative ampC expression,"[5]; 103-H8, 30 min",14.0
same,Relative ampC expression,"[5]; 103-H8, 180 min",50 ± 36.5
same,Relative ampC expression,"[5]; 103-H8, 180 min, listed as FOX",50.0
same,Relative ampC expression,"[6]; 110-G8, 0 min",3.3
same,Relative ampC expression,"[6]; 110-G8, 30 min",51.8 ± 13.2
same,Relative ampC expression,"[6]; 110-G8, 30 min, listed as FOX",51.8
same,Relative ampC expression,"[6]; 110-G8, 180 min",29.2 ± 13.1
same,Relative ampC expression,"[6]; 110-G8, 180 min, listed as FOX",29.2
same,IC50,PBP3,25 µM
